# Experimental data taken from PubChem BioAssay (NCI).
#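 Cultured in 96-well plates, cells were exposed to test compound for 48 hours across five concentrations. GI50 marks 50% less growth. TGI denotes the concentration required for complete inhibition of growth.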 Where a SMILES comes first, the peptide text is derived from it. The star is where a group is joined. Boc = CC(C)(C)OC(=O)*
# Legend:
# Experiment in all cases: NCI anticancer screen, dose series, 48 h
# [1] = tested on: EKVX NSCLC
# [2] = tested on: RPMI-8226 leukemia
# [3] = tested on: M14 melanoma
# [4] = tested on: CCRF-CEM leukemia
# [5] = tested on: TK-10 renal
# [6] = tested on: SF-295 CNS
# [7] = tested on: OVCAR-8 ovarian
# [8] = tested on: NCI-H460 lung
# [9] = tested on: COLO 205 colon
# [10] = tested on: NCI-H522 lung
SMILES,TGI [1] [µM],TGI [2] [µM],TGI [3] [µM],TGI [4] [µM],TGI [5] [µM],TGI [6] [µM],TGI [7] [µM],TGI [8] [µM],TGI [9] [µM],GI50 [1] [µM],GI50 [2] [µM],GI50 [7] [µM],GI50 [8] [µM],GI50 [3] [µM],GI50 [5] [µM],GI50 [9] [µM],GI50 [6] [µM],GI50 [10] [µM],TGI [10] [µM],GI50 [4] [µM]
CC1(C)[C@@H](Cn2cnc3c(=O)[nH]c(N)nc32)CC[C@@]1(C)CO,> 100,> 100,> 100,> 100,> 100,> 100,,,,,,,,,,,,,,
Oc1ccc2c(c1)CC[N+]1=C2CCC2CCCC21 (stereo not given),> 100,,> 100,,> 100,> 100,> 100,> 100,> 100,,,,,,,,,,,
CCOC(=O)c1c2c(n3ccc(NC(=O)OC(C)(C)C)cc13)C(=O)c1ncccc1C2=O,2.03,3.16,1.26,,3.39,1.13,2.09,0.123,1.56,0.168,0.387,0.148,0.0273,0.0445,0.132,0.352,0.272,0.179,0.817,
CCOP(=O)(OCC)/C(=C\N1C(=O)CC(=O)NC1=S)C(=O)OC,> 100,,> 100,,> 100,> 100,> 100,> 100,> 100,,,,,,,,,,,
CCOC(=O)C(=O)C1C(=O)Nc2ccccc21 (stereo not given),> 100,> 100,> 100,> 100,> 100,> 100,> 100,> 100,> 100,,,,,,,,,,,
C=C(CC(=O)Nc1ccc(C(=O)OC)o1)C(=O)OC,45,,36.1,,46.1,> 100,> 100,> 100,41.1,,,,,,,,,,38,
N/N=C1/C(=N/O)CCc2nonc21,> 100,> 100,> 100,> 100,> 100,> 100,> 100,> 100,> 100,,,,,,,,,,,
Cc1cc(N=Cc2c(CO)cnc(C)c2O)c(N=Cc2c(CO)cnc(C)c2O)cc1C.[Zn],> 100,> 100,> 100,,> 100,> 100,> 100,> 100,> 100,,> 100,,,,,,,,> 100,
CCOC(=O)/C(C#N)=C/c1ccc(CO)o1,> 100,> 100,> 100,,> 100,> 100,> 100,> 100,> 100,,,,,,,,,,> 100,
Nc1ccccc1NC(=O)CCCCCCC(=O)Nc1ccc2c(c1)/C(=C/c1ccc[nH]1)C(=O)N2,,> 100,> 100,> 100,,> 100,> 100,> 100,> 100,,2.47,5.59,22.4,69.2,,43.8,> 100,2.78,> 100,0.419
CN1C/C(=C\c2ccc(Cl)cc2)C(=O)/C(=C/c2ccc(Cl)cc2)C1,> 90.6,0.895,5.48,1.37,> 100,2.07,0.605,4.59,5.62,,,,,,,,,,,
COC(=O)C(Cc1c[nH]c2ccccc12)NC(=O)C(Cc1c[nH]c2ccccc12)NC(=O)C(Cc1c[nH]c2ccccc12)NC(=O)C(Cc1c[nH]c2ccccc12)NC(=O)OC(C)(C)C (stereo not given) (Boc-WWWW-OMe; configuration not given here),,26,> 100,34.3,> 100,,> 100,> 100,,,,,,,,,,,> 100,
O=c1[nH]c(=O)n(COCc2ccccc2)c2ccc(Br)cc12,> 100,,> 100,> 100,> 100,> 100,> 100,> 100,> 100,,,,,,,,,,,
CC1(C)CN(c2ccccc2)C(=O)C1OC(=O)[C@@]1(C)C[C@@H]2C=C[C@H]1C2 (stereo not given in full),59.9,30,40.1,81.4,64.7,46.7,> 100,55,34,,,,,,,,,,,
CN(C)CCOC(=O)c1ccc(N)cc1,,75.2,34.8,69.8,> 100,> 100,> 100,> 100,> 100,,,,,,,,,,68.1,
Cc1ccc(S(=O)(=O)NC(=O)NCCC(=O)O)cc1,,> 100,> 100,> 100,> 100,> 100,> 100,> 100,> 100,,,,,,,,,,> 100,
O=C(NC1(C(=O)NNc2nnc(-c3ccccc3)c(-c3ccccc3)n2)C(c2ccccc2)C(c2ccccc2)=NN1c1ccccc1)c1ccccc1 (stereo not given),> 100,,> 100,,> 100,> 100,> 100,> 100,> 100,,,,,,,,,,> 100,
O=C(NNc1cn[nH]c(=O)c1Cl)/C(=C/c1ccc2c(c1)OCO2)NC(=O)c1ccccc1,> 100,,> 100,,> 100,> 100,> 100,> 100,> 100,,,,,,,,,,,
